Measurements reported in ChEMBL document CHEMBL3507680, “University of Dundee, Gates Library screen for HepG2 cell viability”.

Assay: Human HepG2 cell viability assay in 384 well format
Format: toxicity, cell-based
Design: dose 125 nL, time 70.5 hour; concentration not given beside the values
Settings: HepG2 cells, read-out: Inhibition

Point of comparison: Nc1c(N2CCOCC2)ncnc1N1CCOCC1, cytotoxicity at 70.5 h 0.518%. Against it:
- CCCC(=O)N1CCC2(CC1)CN(Cc1cccc(C)n1)C(=O)CO2 — higher, 0.856%
- COCCN(C)CCN1CC2(CCN(C3CCCNC3)CC2)OC1=O (centres undefined) — lower, -4.32%
- CC1c2ncc(COCC3CCOCC3)n2CCN1C(=O)c1ccoc1 (centres undefined) — lower, -2.87%
- CC(NCc1ccc(C(N)=O)cc1)c1ccc(Cl)c(Cl)c1 (centres undefined) — lower, -11.9%
- COC1CN(C(=O)CC(C)C)CCC(=O)N(C)c2ccccc21 (centres undefined) — lower, -7.01%
- Cn1ccnc1CN(CCO)C(=O)C1CCN(C(=O)C2CC2)CC1 — higher, 0.876%
- Cc1cccnc1CC(C)NC1CCSCC1 (centres undefined) — lower, -3.02%
- Cn1nnc2c1CCN(C(=O)CC1CC1)C2COCCN1CCCC1 (centres undefined) — higher, 8.05%
- O=C(c1c2c(N3CCCC3)ncnc2n2ccccc12)N1CCOCC1 — lower, -5.97%
- COCCn1ccc(=O)c(OCC(=O)Nc2ccccc2)c1C — lower, -10.1%
- CCc1ccccc1NC(=O)CCc1cnn(C)c1 — lower, -11.3%
- Cc1nc(CN2CCCC(N(C)CCc3cccs3)C2)no1 (centres undefined) — higher, 8.18%
- CS(=O)(=O)NC1CCN(c2cccc(F)c2C#N)CC1 — lower, -16.5%
- COCc1noc(C2(c3ccc(F)cc3)CCC2)n1 — lower, -0.0433%
- CSCC(=O)NS(=O)(=O)c1ccc2c(c1)OCCO2 — higher, 0.628%
- CCn1ccc(CNC(=O)c2cc(OC)cc(OC)c2)n1 — lower, -10.5%
- Cc1cc(F)ccc1-n1cc(O)c(C(=O)NCC2(O)CCC2)n1 — higher, 28.4%
- COCCn1ccc2c(C(=O)NCC3CCCO3)cccc21 (centres undefined) — lower, -8.34%
- CC(C)C(=O)N1CCC2(CC1)NC(=O)[C@H]1CN(C(=O)N(C)C)C[C@H]12 — lower, -11.8%
- Cc1nc(N2CCN(C)CC2)ncc1C(=O)N1CCC(O)(CO)CC1 — lower, -6.38%
- CCc1ncnc2c1CCN(CC(=O)N(C)C)CC2 — lower, -1.77%
- c1cc(CN(CCCn2ccnc2)Cc2ccoc2)ccn1 — lower, -4.93%
- c1cncc(C2COC3(CCN(CC4CCOCC4)CC3)C2)c1 (centres undefined) — higher, 1.21%
- CN(C)C(=O)c1nn(C)c2c1CN(Cc1cccs1)C2 — lower, -9.29%
- CC(C)S(=O)(=O)N1CCCC(c2cccc(C(=O)O)c2)C1 (centres undefined) — lower, -10.1%
- COc1ccc(C2=CCN(C(=O)CN(CC(N)=O)C(C)C)CC2)cc1 — lower, -4.3%
- CCC(OC)C(=O)N1CCc2nc(NC)nc(C(=O)N3CCCC3)c2C1 (centres undefined) — lower, -5.78%
- Cc1c[nH]c(CN(C)C(=O)C(C)(C)NC(=O)c2cccs2)n1 — lower, -19.9%
- CC1CC(NS(=O)(=O)c2ccc(C(F)(F)F)nc2)C1 (centres undefined) — higher, 26.5%
- Cc1ccc(N2CCCC(N(C)c3nn4cc(C)nc4s3)C2)nn1 (centres undefined) — lower, -3.89%
- FC(F)(F)c1ccc2nc([C@H]3CCN(C4CCCCC4)C3)[nH]c2c1 — higher, 5.15%
- CC(Cn1cccn1)NC(=O)NCc1cccnc1OC1CCCC1 (centres undefined) — lower, -12.8%
- CC1(C)CC(N2Cc3nc(N)ncc3C2=O)CC(C)(C)N1 — lower, -8%
- Cc1cc(C)c(C(=O)N(C)CCN(C)C(=O)OC(C)(C)C)[nH]1 — higher, 6.57%
- c1cncc(OCc2nnn3c2CN(Cc2ccsc2)CCC3)c1 — lower, -11.8%
- Cn1nc(Br)c2c(NCCSCCCO)ncnc21 — lower, -10.5%
- CC(C)(C)n1cc(C2=CCN(CCNC(=O)c3ccccc3)CC2)cn1 — lower, -5.4%
- CN(C)Cc1cc(CC2(NCc3ccc(C#N)cc3)COC2)no1 — lower, -6.01%
- COC(=O)c1ccc(CNC(=O)Cc2csc(C(C)=O)c2)cc1 — higher, 4.17%
- Cc1ccccc1-c1noc(-c2ccc(N(C)C3CCOCC3)nc2)n1 — lower, -2.11%
- COCCN1CC[C@H](OC)[C@@H]1Cc1ccccc1 — lower, -0.421%
- Cn1nc2c(cc1=O)CN(Cc1nc3ccccc3c(=O)[nH]1)CC2 — lower, -6.45%
- CCS(=O)(=O)N1C[C@H]2CC[C@@]3(N=C(C)N(CC(C)C)C3=O)[C@H]2C1 — lower, -10.8%
- COCc1nnc(C(=O)N2CCCC(O)C2)o1 (centres undefined) — lower, -1.1%
- O=C(NC1CC1)c1cc(Sc2ncccn2)ccn1 — lower, -14.6%
- CCNC(=O)NC(=O)C(C)N1CCCc2cc(OC)ccc2C1 (centres undefined) — lower, -10.4%
- CCN(CC1CCOC1)C(=O)c1ccc(N(C)C)cc1F (centres undefined) — lower, -1.53%
- CC(C)n1nc(CNc2ncccn2)c2c1CN(S(C)(=O)=O)CC2 — higher, 10.7%
- NC(=O)COc1ccc(C(=O)N2CCCC(n3ccnc3)C2)cc1 (centres undefined) — lower, -3%
- COCCNC(=O)c1cc2c(s1)CCN2C(=O)c1ccccc1 — higher, 6.46%
- CCc1c(O)nc(SC(C)CC)n(-c2ccccc2)c1=O (centres undefined) — lower, -7.78%
- CN1CCCC[C@@H]2[C@H]1[C@@H](c1ccccc1)CCN2C(=O)c1ccccc1 — higher, 1.32%
- COCc1nnc(C(=O)N2CC(N3CCCCC3)C2)o1 — lower, -9.01%
- CCC(NC(=O)C1CCN(S(C)(=O)=O)CC1)c1ccc(OC)c(OC)c1 (centres undefined) — lower, -7.44%
- Cn1ccnc1-c1cn(CCCc2csc(N)n2)nn1 — lower, -15.7%
- O[C@@]1(c2ccccn2)CC[C@H]2CN(Cc3ccccn3)C[C@H]21 — lower, -0.173%
- Fc1ccc(OCCCN2CCOC(Cn3cncn3)C2)cc1 (centres undefined) — lower, -5.61%
- COC(=O)Cn1c(C)cc(=O)c2cc(F)ccc21 — lower, -4.13%
- O=C(C1CCC1)N1CC[C@H](O)[C@@H]1Cc1cccnc1 — higher, 1.53%
- Cc1cc(N2CCOC(C(F)(F)F)C2)nc(-c2ccccc2O)n1 (centres undefined) — lower, -6.3%
- COCCNC(=O)[C@H]1CN2CCC1C[C@@H]2Cn1cc(C(C)(C)C)nn1 (some centres undefined) — lower, -0.883%
- Cc1cnc2n(c1=O)CC(C(=O)Nc1ccon1)CS2 (centres undefined) — lower, -13.7%
- CCc1nc(C)c(C(=O)NCCn2nc3ccccn3c2=O)s1 — lower, -3.88%
- CC(C)N1CCc2[nH]nc(C(=O)N3CCCC3C)c2C1 (centres undefined) — lower, -4.03%
- CC(NC(=O)c1ccc(=O)n(C)c1)c1ccccc1-n1cccn1 (centres undefined) — lower, -19.9%
- O=C1N(c2ccsc2)CCC12CCCN(Cc1ccccn1)C2 (centres undefined) — lower, -4.36%
- Cc1ccc(O)c(C(=O)N2CCCC2CC(=O)c2cnn(C)c2)c1 (centres undefined) — lower, -4.97%
- COc1c(C2CCCN2C(=O)c2ccc(N(C)C)nn2)c(C)nn1C (centres undefined) — lower, -8.95%
- CCc1nc(N2CCOCC2)ncc1C(=O)NC(c1cccs1)C(C)C (centres undefined) — lower, -0.678%
- COc1ccc(F)cc1-c1ccccc1CC1(C(=O)O)CCOCC1 — higher, 27.6%
- COCCNC(=O)CN1CCN(c2nc(C)cs2)C(C)C1 (centres undefined) — lower, -1.03%
- Cn1c(CN2CCCCCC2)cc(=O)c(O)c1CN1CCCC1 — higher, 51.6%
- CCNc1ncc2c(n1)CN(c1ccc(C)c(C)c1)C2=O — lower, -11.2%
- COC(=O)CC(c1cccs1)c1oc(C)cc(=O)c1O (centres undefined) — lower, -7.87%
- O=C(c1ccccc1O)N1CCN(C(=O)C2CCC2)CC1 — higher, 16.4%
- Cc1noc(C)c1CCCNc1cnccn1 — lower, -16.9%
- O=C(CCC1CCCC1)N1CCCC(c2ncc3c(n2)CCNC3)C1 (centres undefined) — lower, -1.37%
- Cc1cc(C)n(CC2CCCN2CC(=O)N(C)Cc2cnn(C)c2)n1 (centres undefined) — lower, -9.95%
- Cc1nnn2c1COCC(CNC(=O)c1cnoc1C)C2 (centres undefined) — lower, 0.126%
- Cc1nnc2n1CCN(C(C(=O)NC(C)C)c1ccccc1)C2 (centres undefined) — higher, 19.5%
- CCc1cnc(N2CCc3ncnc(N4CCN(C)CC4)c3CC2)nc1 — lower, -3.37%
- CCN(C)CC(=O)N1CCN(Cc2ccccc2)[C@@H]2CS(=O)(=O)C[C@@H]21 — higher, 2.14%
- CN(C)CCO[C@@H]1CC[C@H]2[C@H]1OCCN2C(=O)c1ccc(F)cc1 — lower, -1.79%
- CN1CCO[C@@H]2CN(C(=O)Cc3cccs3)CC[C@@H]2C1 — lower, -2.05%
- O=C(NCCCO)Nc1cccc(C[S+]([O-])Cc2ccccc2)c1 (centres undefined) — lower, -4.46%
- CCOC(=O)C(C)NC(=O)CCSc1ccc(F)cc1 (centres undefined) — lower, -2.94%
- CC(C)CN1C[C@@H]2C(=O)NC3(CCN(C(=O)c4cccnc4)CC3)[C@@H]2C1 — lower, -9.79%
- CN(Cc1cnc(N)nc1)CC1CCCN(CCc2ccc(Cl)cc2)C1 (centres undefined) — higher, 8.66%
- CC(C)CC1SCC(=O)Nc2c1cnn2C(C)C (centres undefined) — lower, -9.09%
- c1cnn(CC2CN(Cc3csc(C4CCCCC4)n3)CCO2)c1 (centres undefined) — lower, -0.469%
- CC(C)N(Cc1ccccn1)C(=O)CCC(=O)c1ccc(F)cc1F — lower, -14.3%
- CNC(=O)C(C)CN(C)C(=O)Nc1ccc(Cl)cc1-n1cccc1 (centres undefined) — higher, 4.05%
- COc1ccc2cc(C3CN(C(=O)COC(C)C)CCO3)ccc2c1 (centres undefined) — lower, -2.81%
- Cc1ccc(C(CNC(=O)c2cc(CC(C)C)nn2C)N(C)C)cc1 (centres undefined) — lower, -3.96%
- CN(CC1CC1)c1ccc2ccc(C(=O)NCCN3CCOCC3)cn12 — lower, -5.52%
- COc1ccc(Cn2cc(C(=O)N(C)Cc3ccn[nH]3)nn2)cc1 — lower, -18.5%
- O=C(NCc1ccon1)N1CCC(n2ccc(C(F)(F)F)n2)CC1 — lower, -94.1%
- COc1ccccc1C(C)N1CCN(S(C)(=O)=O)CC1 (centres undefined) — higher, 11.4%
- Cc1ccc(C2(CN3CCCC3)CCNCC2)nc1 — lower, -9.4%
- COCc1nc(C(=O)NS(=O)(=O)c2ccc(F)cc2F)cs1 — lower, 0.492%
- CCn1c(C2CCNCC2)nn(CCn2cncn2)c1=O — lower, -6.69%
- O=C(c1cncnc1)N1CCCC(c2nccs2)C1 (centres undefined) — lower, -3.47%
- O=c1c(Cc2ccccc2)c(O)ccn1Cc1ccco1 — lower, 0.508%
- Cc1cc(NC(=O)CN2CCCC2c2noc(C)n2)n(C)n1 (centres undefined) — lower, -5.38%
- O=C(Nc1ccncc1)NC1CCN(c2ccccc2Cl)C1=O (centres undefined) — lower, -5.27%
- CCCOC1CCCN(C(=O)c2ccnc(N3CCN(C)CC3)c2)C1 (centres undefined) — higher, 23%
- O=S(=O)(c1cccnc1)N1CCCCC1CCN1CCOCC1 (centres undefined) — higher, 23.1%
- CN1CCC(N2CCOC[C@H]2c2nc(-c3ccncc3)c[nH]2)CC1 — higher, 3.14%
- O=S(=O)(C1CC1)N1CCc2ncc(Cn3cncn3)n2CC1 — lower, -3.06%
- Cc1cnc(CNC2CCc3nc(C(C)C)nn3C2)cn1 (centres undefined) — lower, -2.01%
- CSc1ccc(S(=O)(=O)NC2CNC(=O)C2)cc1 (centres undefined) — lower, -3.59%
- CC(C)(O)CN1CCN(C(=O)c2cccnc2O)CC1 — lower, -2.58%
- CN(CCc1ccccc1)Cc1nc(-c2cnccn2)no1 — lower, -8.36%
